Patent US6011037A, “Thiazole derivatives with phosphodiesterase-inhibiting action” (Byk Gulden Lomberg Chemische Fabrik GmbH, priority 1996, dated 2000)
Where a name gives a salt, the structure may show the parent alone.

Tested on: PDE IV
Experiment: Inhibition of the PDE IV activity (method of Bauer and Schwabe, adapted to microtiter plates)
Assay type: biochemical

Row | SMILES | -log IC50
1 | COc1ccc(-c2nc(-c3cccnc3)cs2)c2c1OC1(CCCC1)C2 [Compound 1, 3-[2-(2,3-Dihydro-7-methoxybenzofuran-2-spiro-1'-cyclopentan-4-yl)thiazol-4-yl]pyridine] | 7.75
2 | COc1ccc(-c2nc(-c3ccncc3)cs2)c2c1OC1(CCCC1)C2 [Compound 2, 4-[2-(2,3-Dihydro-7-methoxybenzofuran-2-spiro-1'-cyclopentan-4-yl)thiazol-4-yl]pyridinehydrobromide] | 7.09
